Values of other authors as cited in patent publication US20100310597A1, “ANTI-OFLOXACIN MONOCLONAL ANTIBODY AND IMMUNOASSAY OF OFLOXACIN USING THE SAME” (SEKISUI MEDICAL CO., LTD, priority 2007, published 2010).

Conditions: background statement

For `C[C@H]1COc2c(N3CCN(C)CC3)c(F)cc3c(=O)c(C(=O)O)cn1c23` [levofloxacin, (−)-(S)-9-fluoro-2,3-dihydro-3-methyl-10-(4-methyl-1-piperazinyl)-7-oxo-7H-pyrido[1,2,3-de][1,4]benzoxazine-6-carboxylic acid], the “Antibiotic activity relative to ofloxacin” value is listed as “approximately twice”.
